Results taken from US11279703B2, “Fused pyrimidine compounds as BRD4 and JAK2 dual inhibitors and methods for use thereof” (APTOSE BIOSCIENCES INC., priority 2016, dated 2022).

Assays:
BRD4-BD1 = BRD4-BD1 (Homo sapiens (Human), UniProt O60885); assay: AlphaLisa bromodomain binding assay, BRD4-BD1; details: Table 6; read-out: BRD4(1) IC50
BRD4-BD2 = BRD4-BD2 (Homo sapiens (Human), UniProt O60885); assay: AlphaLisa bromodomain binding assay, BRD4-BD2; details: Table 6; read-out: BRD4(2) IC50
Source text: (§1) An AlphaLisa assay was used to observe bromodomain binding and measure IC50s for the compounds disclosed herein. An AlphaLisa assay is a bead-based assay used to detect interactions between bromodomains and polyacetylated histone peptides. Donor and acceptor beads bound to target and ligand are brought into proximity by this protein-protein interaction.
(§2) Equipment Required • 1. […] Plate centrifuge • 3. Plate shaker • 4. […] Single channel and multi-channel pipettes • 6. Microplate reader (Pherastar)
(§3) Stock and Final Assay Concentrations (FAC) • 1. All reference and test compounds are made at a concentration of 10 mM in DMSO. Compounds are serially diluted in DMSO and a FAC starting from 10 μM to 10 point 3 fold serial dilutions is arrived. FAC of DMSO is 1%. • 2. Enzyme stock and FAC
(§4) Biotinylated substrate (Acetylated histone H4, biotinylated substrate—cat no. AS64989-025, Anaspec) stock and FAC
(§5) • 4. Acceptor and donor beads stock and FAC
(§6) Buffers • For the enzyme and substrate dilution following buffer is used (for 50 ml) • HEPES: 50 mM 2.5 ml • NaCl: 25 mM 1.25 ml • DTT: 10 mM 0.05 ml • BSA: 0.1% 0.05 g • MilliQ water: 45.7 ml • For dilution of acceptor and donor beads AlphaLISA 5× epigenetics Buffer Perkin Elmer (Cat: AL008C) is used at 1× concentration.
(§7) Procedure • 1. […] Tap the plate gently • 3. […] Cover with plate sealer • 5. […] Incubate the plate at room temperature for 10 minutes • 7. Add 10 μl of the substrate • 8. Cover with plate sealer • 9. […] Cover with plate sealer • 14. […] Cover with plate sealer • 18.
(§8) The percent inhibition is calculated in the excel analysis template and the IC50 values are subsequently determined using a sigmoidal dose-response curve (variable slope) using GraphPad Prism® 5 software.

BRD2-BD1 = BRD2-BD1 (Homo sapiens (Human), UniProt P25440); assay: AlphaLisa bromodomain binding assay, BRD2-BD1; details: Table 6; read-out: BRD2(1) IC50
Sequence of BRD2-BD1 (P25440 74-180): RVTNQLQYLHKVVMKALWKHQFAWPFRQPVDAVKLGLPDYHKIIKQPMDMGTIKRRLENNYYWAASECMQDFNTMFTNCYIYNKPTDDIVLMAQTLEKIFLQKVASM
Source text: as §1, §2, §3, §4, §5, §6, §7, §8

BRD3-BD1 = BRD3-BD1 (Homo sapiens (Human), UniProt Q15059); assay: AlphaLisa bromodomain binding assay, BRD3-BD1; details: Table 6; read-out: BRD3(1) IC50
Sequence of BRD3-BD1 (Q15059 34-140): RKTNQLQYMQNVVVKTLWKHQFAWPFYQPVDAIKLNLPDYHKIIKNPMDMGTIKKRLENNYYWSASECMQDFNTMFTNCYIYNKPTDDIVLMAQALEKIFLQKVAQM
Source text: as §1, §2, §3, §4, §5, §6, §7, §8

BRDT-BD1 = BRDT-BD1 (Homo sapiens (Human), UniProt Q58F21); assay: AlphaLisa bromodomain binding assay, BRDT-BD1; details: Table 6; read-out: BRDT(1) IC50
Source text: as §1, §2, §3, §4, §5, §6, §7, §8

JAK2 = JAK2 (Homo sapiens (Human), UniProt O60674); assay: HTRF kinase assay, JAK2; format: biochemical; details: Table 6
Sequence of JAK2 (O60674 whole entry): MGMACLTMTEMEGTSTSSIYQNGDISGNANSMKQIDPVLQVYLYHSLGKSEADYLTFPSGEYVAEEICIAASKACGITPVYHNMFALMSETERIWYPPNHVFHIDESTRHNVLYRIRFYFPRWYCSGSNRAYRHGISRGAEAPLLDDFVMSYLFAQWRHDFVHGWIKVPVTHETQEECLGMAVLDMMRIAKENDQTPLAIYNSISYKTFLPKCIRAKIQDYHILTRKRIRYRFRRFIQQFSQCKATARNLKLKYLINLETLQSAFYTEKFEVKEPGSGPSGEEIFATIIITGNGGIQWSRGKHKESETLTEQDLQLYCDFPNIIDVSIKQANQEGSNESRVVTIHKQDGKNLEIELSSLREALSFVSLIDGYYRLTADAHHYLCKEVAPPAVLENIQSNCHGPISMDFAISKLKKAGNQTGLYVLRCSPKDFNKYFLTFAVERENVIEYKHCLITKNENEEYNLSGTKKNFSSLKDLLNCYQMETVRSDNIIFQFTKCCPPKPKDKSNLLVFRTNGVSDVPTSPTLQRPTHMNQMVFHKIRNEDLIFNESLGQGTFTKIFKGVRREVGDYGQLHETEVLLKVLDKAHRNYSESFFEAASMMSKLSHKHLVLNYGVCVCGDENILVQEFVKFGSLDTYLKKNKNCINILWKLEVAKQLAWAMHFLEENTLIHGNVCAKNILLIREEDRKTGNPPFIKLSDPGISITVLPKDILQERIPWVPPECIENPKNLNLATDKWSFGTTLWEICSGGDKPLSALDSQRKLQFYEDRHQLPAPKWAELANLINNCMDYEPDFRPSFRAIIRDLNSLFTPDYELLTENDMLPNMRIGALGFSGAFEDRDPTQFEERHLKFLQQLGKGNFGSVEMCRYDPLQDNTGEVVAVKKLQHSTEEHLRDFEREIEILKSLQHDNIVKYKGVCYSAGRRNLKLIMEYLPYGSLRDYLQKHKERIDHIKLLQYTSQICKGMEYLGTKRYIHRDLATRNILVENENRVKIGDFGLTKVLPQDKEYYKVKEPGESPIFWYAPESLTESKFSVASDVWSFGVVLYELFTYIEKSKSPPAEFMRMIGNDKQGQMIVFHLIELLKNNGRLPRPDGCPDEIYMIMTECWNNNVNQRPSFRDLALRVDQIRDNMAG

JAK3 = JAK3 (Homo sapiens (Human), UniProt P52333); assay: HTRF kinase assay, JAK3; format: biochemical; details: Table 6
Sequence of JAK3 (P52333 whole entry): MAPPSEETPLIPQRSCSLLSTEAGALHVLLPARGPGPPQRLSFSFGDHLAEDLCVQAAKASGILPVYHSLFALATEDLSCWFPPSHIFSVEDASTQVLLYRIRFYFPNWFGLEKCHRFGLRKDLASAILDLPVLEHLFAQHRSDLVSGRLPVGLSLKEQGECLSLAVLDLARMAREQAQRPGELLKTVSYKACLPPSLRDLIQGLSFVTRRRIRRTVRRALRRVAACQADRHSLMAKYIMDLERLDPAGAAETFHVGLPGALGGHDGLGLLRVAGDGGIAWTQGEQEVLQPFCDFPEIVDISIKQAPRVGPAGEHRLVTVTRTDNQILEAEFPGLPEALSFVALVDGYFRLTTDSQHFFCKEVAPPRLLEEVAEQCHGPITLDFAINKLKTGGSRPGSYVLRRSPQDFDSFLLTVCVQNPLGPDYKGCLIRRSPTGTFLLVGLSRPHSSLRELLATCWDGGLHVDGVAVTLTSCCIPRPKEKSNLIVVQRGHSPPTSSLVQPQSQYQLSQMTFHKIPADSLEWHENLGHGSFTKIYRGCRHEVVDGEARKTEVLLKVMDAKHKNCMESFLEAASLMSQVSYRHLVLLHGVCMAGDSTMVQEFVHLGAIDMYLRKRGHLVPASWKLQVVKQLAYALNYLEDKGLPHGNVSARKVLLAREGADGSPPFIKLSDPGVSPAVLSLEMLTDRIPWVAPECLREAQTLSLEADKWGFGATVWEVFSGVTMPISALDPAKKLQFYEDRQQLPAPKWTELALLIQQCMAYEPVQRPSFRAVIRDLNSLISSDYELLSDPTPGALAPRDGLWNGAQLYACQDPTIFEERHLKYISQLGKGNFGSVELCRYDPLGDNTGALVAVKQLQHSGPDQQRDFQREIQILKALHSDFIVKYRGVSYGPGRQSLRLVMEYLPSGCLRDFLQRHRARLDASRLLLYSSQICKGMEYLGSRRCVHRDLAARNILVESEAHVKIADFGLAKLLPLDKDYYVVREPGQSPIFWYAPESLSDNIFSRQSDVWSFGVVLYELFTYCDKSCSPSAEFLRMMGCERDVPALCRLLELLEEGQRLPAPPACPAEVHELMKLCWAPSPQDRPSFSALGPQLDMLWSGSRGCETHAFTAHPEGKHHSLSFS
Source text: (§9) A kinase assay with HTRF was used to observe JAK activity and calculate the IC50s of compounds disclosed herein. HTRF is an enzymatic assay used to determine the amount of phosphorylated peptide. FRET (Fluorescence Resonance Energy Transfer) is based on the transfer of energy between two fluorophores—a donor and an acceptor—when in close proximity. Molecular interactions between biomolecules can be assessed by coupling each partner with a fluorescent label and by detecting the level of energy transfer. The amount of phopshorylated peptide can be detected using a combination of a Eu 3+Cryptate labeled anti-phospho residue antibody, SA-XL665 and a biotinylated substrate. The signal is proportional to the concentration of phospho-residues.
(§10) Equipment Required • 1. […] Plate centrifuge • 3. Plate shaker • 4. […] Single channel and multi-channel pipettes • 6. Microplate reader (Pherastar)]
as §3, with “arrived. For Ruxolitinib the starting FAC is 1 μM.” for “arrived.”
(§11) • JAK-1: Invtirogen Cat: PR8767C • JAK-2: Invtirogen Cat: PR7820B • JAK-3: Invtirogen Cat: PR7507B • 3. Substrate (synthetic peptide-Biotinylated-N-terminal tag-[…] from Biopeptide) stock and FAC
(§12) • Adenosine 5′-triphosphate disodium salt hydrate: Sigma Cat: A26209 • 5. […] Buffers • Base buffer (for 50 ml)
(§13) • HTRF buffer: • 50 mM Tris-HCl, pH—7.5 • 100 mM NaCl • 0.1% BSA • 0.05% Tween20 • 0.5 mM EDTA
(§14) To a 384 well black-plate: • 1. Add 17 μL of the buffer to each well of the 384-well black plate • 2. […] Add 5 μl of the enzyme to each well of the plate • 4. Add 10 μl of the substrate and ATP mix to all the wells • 5. Cover with plate sealer • 6. […] Incubate at room temperature for 1 hour on shaker • 8. […] Add 37.5 μL of the HTRF mix to these wells. • 9. Incubate the plate at room temperature on shaker for 45 minutes. • 10.
as §8

JAK1 = JAK1 (Homo sapiens (Human), UniProt P23458); assay: HTRF kinase assay, JAK1; format: biochemical; details: Table 6
Sequence of JAK1 (P23458 whole entry): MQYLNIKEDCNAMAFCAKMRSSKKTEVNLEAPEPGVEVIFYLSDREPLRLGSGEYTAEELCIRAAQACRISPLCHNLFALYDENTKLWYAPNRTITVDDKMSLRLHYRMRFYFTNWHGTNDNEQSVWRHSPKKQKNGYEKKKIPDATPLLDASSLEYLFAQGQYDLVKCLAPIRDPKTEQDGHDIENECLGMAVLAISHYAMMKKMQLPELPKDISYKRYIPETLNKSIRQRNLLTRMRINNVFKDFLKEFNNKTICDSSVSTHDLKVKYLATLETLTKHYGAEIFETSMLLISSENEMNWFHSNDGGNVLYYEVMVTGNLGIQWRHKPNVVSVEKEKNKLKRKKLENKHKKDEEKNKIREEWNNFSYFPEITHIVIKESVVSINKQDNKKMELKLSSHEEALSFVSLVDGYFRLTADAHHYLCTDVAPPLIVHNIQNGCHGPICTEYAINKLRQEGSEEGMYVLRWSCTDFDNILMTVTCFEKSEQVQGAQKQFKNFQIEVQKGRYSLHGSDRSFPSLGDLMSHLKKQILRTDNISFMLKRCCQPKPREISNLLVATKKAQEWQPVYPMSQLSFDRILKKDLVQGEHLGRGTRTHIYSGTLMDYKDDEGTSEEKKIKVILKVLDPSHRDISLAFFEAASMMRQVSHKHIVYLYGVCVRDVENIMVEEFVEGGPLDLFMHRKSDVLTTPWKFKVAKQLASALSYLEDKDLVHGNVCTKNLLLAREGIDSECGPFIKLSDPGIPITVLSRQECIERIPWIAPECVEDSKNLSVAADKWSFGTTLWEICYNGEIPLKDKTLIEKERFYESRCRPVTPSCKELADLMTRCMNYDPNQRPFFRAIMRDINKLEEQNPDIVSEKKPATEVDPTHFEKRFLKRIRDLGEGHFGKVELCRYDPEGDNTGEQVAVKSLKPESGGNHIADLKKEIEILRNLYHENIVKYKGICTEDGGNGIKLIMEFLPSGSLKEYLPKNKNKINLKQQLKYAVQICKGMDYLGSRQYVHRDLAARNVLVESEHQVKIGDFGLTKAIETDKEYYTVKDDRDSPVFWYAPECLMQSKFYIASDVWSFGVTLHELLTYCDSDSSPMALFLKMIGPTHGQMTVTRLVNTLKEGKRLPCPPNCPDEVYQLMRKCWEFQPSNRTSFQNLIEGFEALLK
Source text: as §9, §10
as §3, with “arrived. For Ruxolitinib the starting FAC is 1 μM.” for “arrived.”
as §11, §12, §13, §14, §8

Compound	IC50 (BRD4-BD1)	IC50 (BRD4-BD2)	IC50 (BRD2-BD1)	IC50 (BRD3-BD1)	IC50 (BRDT-BD1)	IC50 (JAK2)	IC50 (JAK3)	IC50 (JAK1)
CN1CCN(c2ccc(Nc3ncc4ccn(-c5cccc(NS(=O)(=O)C6CC6)c5)c4n3)cc2)CC1 [drawing 297]	1460 nM	1350 nM	6210 nM	1740 nM	2630 nM	4.3 nM	31 nM	–
CN1CCC(Nc2nc(Nc3ccc4c(c3)N(S(=O)(=O)C(C)(C)C)CC4)c3ccsc3n2)CC1 [drawing 204]	160 nM	293 nM	776 nM	331 nM	–	–	–	–
Cc1cnc(Nc2ccc(N3CCN(C)CC3)c(F)c2)nc1Nc1ccc2c(c1)N(S(=O)(=O)C(C)(C)C)CC2 [drawing 246]	93.4 nM	112 nM	254 nM	183 nM	228 nM	–	313 nM	–
Cc1cnc(Nc2ccc(OCCN3CCCC3)cc2)nc1Nc1cccc(NS(=O)(=O)C(C)(C)C)c1	420 nM	451 nM	682 nM	853 nM	638 nM	2.3 nM	185 nM	–
O=S(=O)(Nc1cccc(-n2ccc3cnc(Nc4ccc(N5CCNCC5)cc4)nc32)c1)C1CC1 [drawing 296]	677 nM	574 nM	2960 nM	914 nM	1210 nM	2 nM	15 nM	188 nM
CC(C)(C)S(=O)(=O)Nc1cccc(-n2ccc3cnc(Nc4ccc(C(=O)NC5CCNCC5)c(F)c4)nc32)c1	398 nM	99 nM	467 nM	78 nM	312 nM	–	242 nM	206 nM
CN1CCN(c2ccc(Nc3ncc4ccn(-c5cccc(NS(=O)(=O)C(C)(C)C)c5)c4n3)cc2)CC1 [drawing 260]	220 nM	175 nM	700 nM	270 nM	696 nM	–	127 nM	243 nM
COc1cc(Nc2nc(Nc3ccc(N4CCN(C)CC4)cc3)nc3ccccc23)ccc1Cl	6300 nM	5300 nM	790 nM	8400 nM	–	–	–	–
COc1cc(Nc2ncc3ccn(-c4cccc(NS(=O)(=O)C(C)(C)C)c4)c3n2)ccc1N1CCNCC1	402 nM	128 nM	548 nM	142 nM	320 nM	2.8 nM	112 nM	275 nM
CC(C)(C)S(=O)(=O)Nc1cccc(-c2csc3cnc(Nc4ccc(N5CCNCC5)c(F)c4)nc23)c1	295 nM	193 nM	506 nM	181 nM	308 nM	2 nM	61 nM	169 nM
CC(C)(C)S(=O)(=O)Nc1cccc(-n2ccc3cnc(Nc4ccc(C5CCNCC5)cc4)nc32)c1	676 nM	325 nM	1400 nM	570 nM	322 nM	–	100 nM	473 nM
COc1cc(Nc2ncc3ccn(-c4cccc(NS(=O)(=O)C(C)(C)C)c4)c3n2)ccc1N1CCN(C)CC1	431 nM	130 nM	743 nM	161 nM	363 nM	–	82 nM	293 nM
CN1CCN(c2ccc(Nc3nc4c(c(Nc5cccc(NS(=O)(=O)C(C)(C)C)c5)n3)COC4)cc2)CC1 [drawing 206]	–	1000 nM	1770 nM	2470 nM	–	–	–	–
CC(C)(C)S(=O)(=O)Nc1cccc(Nc2nc(NC3CCNCC3)nc3sccc23)c1 [drawing 203]	94 nM	309 nM	458 nM	248 nM	–	–	–	–
Cc1ccc(Nc2nc(Nc3ccc(N4CCN(C)CC4)cc3)nc3ccccc23)cc1NS(=O)(=O)C(C)(C)C	470 nM	1130 nM	636 nM	3200 nM	1800 nM	–	–	–

Compounds with a lower IC50 (BRD4-BD2), results first:

IC50 (BRD4-BD1)	IC50 (BRD4-BD2)	IC50 (BRD2-BD1)	IC50 (BRD3-BD1)	IC50 (BRDT-BD1)	IC50 (JAK2)	IC50 (JAK3)	IC50 (JAK1)	Compound
192 nM	92 nM	670 nM	154 nM	223 nM	10 nM	82 nM	1200 nM	CNC1CCN(c2ccc(Nc3ncc4scc(-c5ccc(F)c(NS(=O)(=O)C(C)(C)C)c5)c4n3)cc2F)CC1 [drawing 458]
150 nM	88 nM	420 nM	–	302 nM	52 nM	608 nM	9900 nM	CNC1CCN(c2ccc(Nc3ncc4ccn(-c5ccc(F)c(NS(=O)(=O)C(C)(C)C)c5)c4n3)cc2F)CC1 [drawing 457]
220 nM	73 nM	448 nM	366 nM	230 nM	7 nM	–	–	Cc1cnc(Nc2ccc(N3CCN(C)CC3)cc2)nc1Nc1cccc(NS(=O)(=O)C(C)(C)C)c1 [drawing 271]
118 nM	73 nM	448 nM	366 nM	230 nM	4 nM	–	–	Cc1cnc(Nc2ccc(N3CCN(C)CC3)cc2)nc1Nc1cccc(NS(=O)(=O)C(C)(C)C)c1 [drawing 245]
128 nM	67.5 nM	490 nM	109 nM	182 nM	35 nM	105 nM	972 nM	CN1CCN(c2ccc(Nc3ncc4ccn(-c5ccc(F)c(NS(=O)(=O)C(C)(C)C)c5)c4n3)cc2)CC1 [drawing 295]
205 nM	67 nM	576 nM	117 nM	268 nM	50 nM	253 nM	178 nM	CNCCNC(=O)Cc1ccc(Nc2ncc3ccn(-c4cccc(NS(=O)(=O)C(C)(C)C)c4)c3n2)cc1
82 nM	54 nM	369 nM	123 nM	194 nM	28 nM	334 nM	587 nM	CC(C)(C)S(=O)(=O)Nc1cccc(-n2ccc3cnc(Nc4ccc(C(=O)N5CCNCC5)c(F)c4)nc32)c1 [drawing 463]
87 nM	30 nM	157 nM	92 nM	131 nM	24 nM	–	1010 nM	Cc1cnc(Nc2ccc(C(=O)NC3CCN(C)CC3)c(F)c2)nc1Nc1ccc2c(c1)N(S(=O)(=O)C(C)(C)C)CC2
210 nM	13 nM	373 nM	213 nM	–	10 nM	–	–	Cc1cnc(Nc2ccc(N3CCN(C)CC3)cc2)nc1Nc1cccc(NS(=O)(=O)C(C)(C)C)c1 [drawing 205]
